Source: US20240238423A9, “TETRAHYDROISOQUINOLINE HETEROBIFUNCTIONAL BCL-XL DEGRADERS” (Treeline Biosciences, Inc., priority 2022, published 2024)
Like-named read-outs stand apart in the source and are kept apart here.

Molecular target: T1, Human BCL-XL protein (N-terminal HiBiT tagged BCL-XL in HT1080 cells) (Homo sapiens, UniProt Q07817)
T1 construct: expressed in transfected cells; host or cells: HT-1080 (ATCC CCL-121), stably transduced with lentivirus pLV-UBC-N-HiBiT-BCL-XL-PGK-puro and selected with puromycin
T1 sequence (Q07817 whole entry): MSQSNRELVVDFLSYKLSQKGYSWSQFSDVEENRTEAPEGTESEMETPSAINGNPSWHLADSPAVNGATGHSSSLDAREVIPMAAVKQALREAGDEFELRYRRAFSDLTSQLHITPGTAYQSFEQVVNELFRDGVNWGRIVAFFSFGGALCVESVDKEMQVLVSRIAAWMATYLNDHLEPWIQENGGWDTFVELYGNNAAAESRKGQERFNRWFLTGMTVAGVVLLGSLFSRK
Test: HiBiT based degradation assay
Format: cell-based
Conditions: HT1080 cells expressing HiBiT-BCL-XL; for Ymin (24 h) / Ymin (6 h): BCL-XL degradation normalized with DMSO control; for DC50: BCL-XL degradation
Method in brief: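 HT1080 cells stably transduced by lentivirus with N-terminally HiBiT-tagged human BCL-XL and kept under 1 μg/mL puromycin selection were seeded at three thousand cells per well in 40 μL RPMI 1640 into 384-well plates pre-spotted with compounds across a concentration range. Luminescence was read on a PHERAstar FSX, normalized to DMSO, and fitted with a four-parameter logistic model.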

Ymin (24 h)	DC50 (24 h, read-out: EC50 (24 h)) [nM]	Ymin (6 h)	DC50 (6 h, read-out: EC50 (6 h)) [nM]	Structure (SMILES)
A (Ymin < 50%)	< 100	–	–	Cc1c(O[C@H]2CC[C@H](CCCN3CCN(c4ccc5c(C6CCC(=O)NC6=O)nn(C)c5c4)C[C@H]3C)CC2)cccc1-c1ccc(N2CCc3cccc(C(=O)Nc4nc5ccccc5s4)c3C2)nc1C(=O)O (stereo partly drawn) [Compound 273a, 6-(8-(benzo[d]thiazol-2-ylcarbamoyl)-3,4-dihydroisoquinolin-2(1H)-yl)-3-(3-(((1S,4r)-4-(3-((2R)-4-(3-(2,6-dioxopiperidin-3-yl)-1-methyl-1H-indazol-6-yl)-2-methylpiperazin-1-yl)propyl)cyclohexyl)oxy)-2-methylphenyl)picolinic acid]
A (Ymin < 50%)	< 100	–	–	Cc1c(O[C@H]2CC[C@H](CC[C@H](C)CN3CCN(c4ccc5c(C6CCC(=O)NC6=O)nn(C)c5c4)CC3)CC2)cccc1-c1ccc(N2CCc3cccc(C(=O)Nc4nc5ccccc5s4)c3C2)nc1C(=O)O (single isomer, unassigned) [Compound 308b]
B (50% ≤ Ymin < 70%)	< 100	C (Ymin ≥ 70%)	1000 to 10000	Cc1c(Oc2ccc(CCC(=O)N3CCN(c4ccc5c(C6CCC(=O)NC6=O)nn(C)c5c4)CC3)cc2)cccc1-c1ccc(N2CCc3cccc(C(=O)Nc4nc5ccccc5s4)c3C2)nc1C(=O)O (centres unmarked) [Compound 244, 6-(8-(benzo[d]thiazol-2-ylcarbamoyl)-3,4-dihydroisoquinolin-2(1H)-yl)-3-(3-(4-(3-(4-(3-(2,6-dioxopiperidin-3-yl)-1-methyl-1H-indazol-6-yl)piperazin-1-yl)-3-oxopropyl)phenoxy)-2-methylphenyl)picolinic acid]
B (50% ≤ Ymin < 70%)	< 100	–	–	Cc1c(OCCC[C@@H]2CCCN(CC(=O)Nc3cccc4c(C5CCC(=O)NC5=O)nn(C)c34)C2)cccc1-c1ccc(N2CCc3cccc(C(=O)Nc4nc5ccccc5s4)c3C2)nc1C(=O)O (single isomer, unassigned) [Compound 210a]
A (Ymin < 50%)	< 100	–	–	Cc1c(OCCC[C@@H]2CCN(CC(=O)Nc3ccc4c(C5CCC(=O)NC5=O)nn(C)c4c3)[C@H](C)C2)cccc1-c1ccc(N2CCc3cccc(C(=O)Nc4nc5ccccc5s4)c3C2)nc1C(=O)O (stereo partly drawn) [Compound 343a, 6-(8-(benzo[d]thiazol-2-ylcarbamoyl)-3,4-dihydroisoquinolin-2(1H)-yl)-3-(3-(3-((2R,4R)-1-(2-((3-(2,6-dioxopiperidin-3-yl)-1-methyl-1H-indazol-6-yl)amino)-2-oxoethyl)-2-methylpiperidin-4-yl)propoxy)-2-methylphenyl)picolinic acid]
–	–	B (50% ≤ Ymin < 70%)	< 100	Cc1c(-c2ccc(N3CCc4cccc(C(=O)Nc5nc6ccccc6s5)c4C3)nc2C(=O)NCCCCCCCCCCCC(=O)Nc2cccc3c(C4CCC(=O)NC4=O)nn(C)c23)cnn1CC12CC3CC(CC(C3)C1)C2 (centres unmarked) [Compound 110, 2-(5-(1-((3r,5r,7r)-adamantan-1-ylmethyl)-5-methyl-1H-pyrazol-4-yl)-6-((12-((3-(2,6-dioxopiperidin-3-yl)-1-methyl-1H-indazol-7-yl)amino)-12-oxododecyl)carbamoyl)pyridin-2-yl)-N-(benzo[d]thiazol-2-yl)-1,2,3,4-tetrahydroisoquinoline-8-carboxamide]
A (Ymin < 50%)	< 100	–	–	Cc1c(O[C@H]2CC[C@H](CCCN3CCN(c4cccc5c(C6CCC(=O)NC6=O)nn(C)c45)[C@H](C)C3)CC2)cccc1-c1ccc(N2CCc3cccc(C(=O)Nc4nc5ccccc5s4)c3C2)nc1C(=O)O (stereo partly drawn) [Compound 274a, 6-(8-(benzo[d]thiazol-2-ylcarbamoyl)-3,4-dihydroisoquinolin-2(1H)-yl)-3-(3-(((1S,4r)-4-(3-((3R)-4-(3-(2,6-dioxopiperidin-3-yl)-1-methyl-1H-indazol-7-yl)-3-methylpiperazin-1-yl)propyl)cyclohexyl)oxy)-2-methylphenyl)picolinic acid]
A (Ymin < 50%)	< 100	–	–	Cc1c(O[C@H]2CC[C@H](CCCCN3CCN(c4ccc5c(C6CCC(=O)NC6=O)nn(C)c5c4)C[C@@H]3C)CC2)cccc1-c1ccc(N2CCc3cccc(C(=O)Nc4nc5ccccc5s4)c3C2)nc1C(=O)O (stereo partly drawn) [Compound 297b, 6-(8-(benzo[d]thiazol-2-ylcarbamoyl)-3,4-dihydroisoquinolin-2(1H)-yl)-3-(3-(((1r,4r)-4-(4-((2S)-4-(3-(2,6-dioxopiperidin-3-yl)-1-methyl-1H-indazol-6-yl)-2-methylpiperazin-1-yl)butyl)cyclohexyl)oxy)-2-methylphenyl)picolinic acid]
A (Ymin < 50%)	< 100	A (Ymin < 50%)	< 100	Cc1c(OCCN2CCN(CC(=O)Nc3ccc4c(C5CCC(=O)NC5=O)nn(C)c4c3)CC2)cccc1-c1ccc(N2CCc3cccc(C(=O)Nc4nc5ccccc5s4)c3C2)nc1C(=O)O (centres unmarked) [Compound 103, 6-[8-(1,3-benzothiazol-2-ylcarbamoyl)-3,4-dihydro-1H-isoquinolin-2-yl]-3-[3-[2-[4-[2-[[3-(2,6-dioxo-3-piperidyl)-1-methyl-indazol-6-yl]amino]-2-oxo-ethyl]piperazin-1-yl]ethoxy]-2-methyl-phenyl]pyridine-2-carboxylic acid]
B (50% ≤ Ymin < 70%)	100 to 1000	–	–	Cc1c(O[C@H]2CC[C@H](CCC(=O)N3CCC(c4cccc5c(C6CCC(=O)NC6=O)nn(C)c45)CC3)CC2)cccc1-c1ccc(N2CCc3cccc(C(=O)Nc4nc5ccccc5s4)c3C2)nc1C(=O)O (some centres unmarked) [Compound 253a, 6-(8-(benzo[d]thiazol-2-ylcarbamoyl)-3,4-dihydroisoquinolin-2(1H)-yl)-3-(3-(((1r,4r)-4-(3-(4-(3-(2,6-dioxopiperidin-3-yl)-1-methyl-1H-indazol-7-yl)piperidin-1-yl)-3-oxopropyl)cyclohexyl)oxy)-2-methylphenyl)picolinic acid]
C (Ymin ≥ 70%)	< 100	C (Ymin ≥ 70%)	1000 to 10000	Cc1c(Oc2ccccc2CCCC(=O)Nc2cccc3c(C4CCC(=O)NC4=O)nn(C)c23)cccc1-c1ccc(N2CCc3cccc(C(=O)Nc4nc5ccccc5s4)c3C2)nc1C(=O)O (centres unmarked) [Compound 128, 6-(8-(benzo[d]thiazol-2-ylcarbamoyl)-3,4-dihydroisoquinolin-2(1H)-yl)-3-(3-(2-(4-((3-(2,6-dioxopiperidin-3-yl)-1-methyl-1H-indazol-7-yl)amino)-4-oxobutyl)phenoxy)-2-methylphenyl)picolinic acid]
–	–	B (50% ≤ Ymin < 70%)	< 100	Cc1c(-c2ccc(N3CCc4cccc(C(=O)Nc5nc6ccccc6s5)c4C3)nc2C(=O)NCCCCCCCC(=O)Nc2ccc3c(C4CCC(=O)NC4=O)nn(C)c3c2)cnn1CC12CC3CC(CC(C3)C1)C2 (centres unmarked) [Compound 157, 2-(5-(1-(((3r,5r,7r)-adamantan-1-yl)methyl)-5-methyl-1H-pyrazol-4-yl)-6-((8-((3-(2,6-dioxopiperidin-3-yl)-1-methyl-1H-indazol-6-yl)amino)-8-oxooctyl)carbamoyl)pyridin-2-yl)-N-(benzo[d]thiazol-2-yl)-1,2,3,4-tetrahydroisoquinoline-8-carboxamide]
B (50% ≤ Ymin < 70%)	100 to 1000	–	–	Cc1c(OCCCC2CCN(CC(=O)Nc3cc4c(cc3F)c(C3CCC(=O)NC3=O)nn4C)CC2)cccc1-c1ccc(N2CCc3cccc(C(=O)Nc4nc5ccccc5s4)c3C2)nc1C(=O)O (centres unmarked) [Compound 295, 6-[8-(1,3-benzothiazol-2-ylcarbamoyl)-3,4-dihydro-1H-isoquinolin-2-yl]-3-[3-[3-[1-[2-[[3-(2,6-dioxo-3-piperidyl)-5-fluoro-1-methyl-indazol-6-yl]amino]-2-oxo-ethyl]-4-piperidyl]propoxy]-2-methyl-phenyl]pyridine-2-carboxylic acid]
A (Ymin < 50%)	< 100	–	–	Cn1nc(C2CCC(=O)NC2=O)c2ccc(N3CCN(CCC[C@H]4CC[C@H](Oc5cccc(-c6ccc(N7CCc8cccc(C(=O)Nc9nc%10ccccc%10s9)c8C7)nc6C(=O)O)c5)CC4)CC3)cc21 (some centres unmarked) [Compound 330a, 6-(8-(benzo[d]thiazol-2-ylcarbamoyl)-3,4-dihydroisoquinolin-2(1H)-yl)-3-(3-(((1s,4r)-4-(3-(4-(3-(2,6-dioxopiperidin-3-yl)-1-methyl-1H-indazol-6-yl)piperazin-1-yl)propyl)cyclohexyl)oxy)phenyl)picolinic acid]

Structure (SMILES)	Ymin (24 h)	DC50 (24 h, read-out: EC50 (24 h)) [nM]	Ymin (6 h)	DC50 (6 h, read-out: EC50 (6 h)) [nM]
Cc1c(OCCO[C@@H]2C[C@H]3CC[C@@H](C2)N3CC(=O)Nc2ccc3c(C4CCC(=O)NC4=O)nn(C)c3c2)cccc1-c1ccc(N2CCc3cccc(C(=O)Nc4nc5ccccc5s4)c3C2)nc1C(=O)O (stereo partly drawn) [Compound 174b, 6-(8-(benzo[d]thiazol-2-ylcarbamoyl)-3,4-dihydroisoquinolin-2(1H)-yl)-3-(3-(2-(((1R,3s,5S)-8-(2-((3-(2,6-dioxopiperidin-3-yl)-1-methyl-1H-indazol-6-yl)amino)-2-oxoethyl)-8-azabicyclo[3.2.1]octan-3-yl)oxy)ethoxy)-2-methylphenyl)picolinic acid]	B (50% ≤ Ymin < 70%)	< 100	C (Ymin ≥ 70%)	100 to 1000
